Where a name gives a salt, the structure may show the parent alone.
experiment: in vitro; conditions: rat, gh3-tre-luc cells, AC50 (uM) modified / 1000

Row | Structure (SMILES) | CC50 at 24 h [µM]
1 | COc1cc2c3cc1Oc1cc(ccc1O)C[C@@H]1c4c(cc(OC)c(O)c4Oc4ccc(cc4)C[C@@H]3N(C)CC2)CC[N+]1(C)C [(+)-Tubocurarine chloride hydrochloride] | > 50
2 | NC(=O)N[C@@H](CCC(=O)O)C(=O)O [N-Carbamyl-L-glutamic acid] | > 50
3 | NCCCC(=O)O [4-Aminobutanoic acid] | > 50
4 | CCOC(=O)c1cnc2c(cnn2CC)c1NN=C(C)C [Etazolate hydrochloride] | > 50
5 | COC(=O)C1=C(C)NC(C)=C(C(=O)OCCCN2CCC(c3ccccc3)(c3ccccc3)CC2)C1c1cccc([N+](=O)[O-])c1 (racemic) [(+/-) -Niguldipine hydrochloride (1:x)] | 12.3
6 | NC1CCCCC1 [Cyclohexylamine hydrochloride] | > 90
7 | CC(C)CCCCCCOC(=O)c1ccccc1C(=O)OCCCCCCC(C)C [Diisononyl phthalate] | > 90
8 | Cc1oc(-c2ccccc2)nc1CCOc1cccc2c1ccn2CCC(=O)O [PD-0333941] | 18.9
9 | CNC1(C)C2CCC(C2)C1(C)C (stereo not drawn) [Mecamylamine] | > 50
10 | CCNc1nc(NC(C)C)nc(OC)n1 [Atraton] | > 90
11 | Cc1ccc(C(C)(C)C)cc1 [4-tert-Butyltoluene] | > 90
12 | CC(=O)C1C(=O)C=C(C)OC1=O (stereo not drawn) [Dehydroacetic acid] | > 90
13 | Cc1cc2c(cc1S(N)(=O)=O)S(=O)(=O)CCC2 [Meticrane] | > 20
14 | Cc1ccccc1C#N [2-Tolunitrile] | > 90
15 | O=C1Nc2ccc(Cl)cc2[C@@](C#CC2CC2)(C(F)(F)F)O1 [Efavirenz] | 31.4
16 | N#Cc1sc2c(=O)c3ccccc3c(=O)c=2sc1C#N [Dithianon] | 29.4
17 | CC(=O)Nc1nnc(S(N)(=O)=O)s1 [Acetazolamide] | > 90
18 | CC[N+]1(C)CCCC1 [1-Ethyl-1-methylpyrrolidinium hexafluorophosphate] | > 90
19 | OCC(O)c1ccccc1 (stereo not drawn) [Styrene glycol] | > 90
20 | C#C[C@]1(O)CC[C@H]2[C@@H]3CCC4=C(CCC(=O)C4)[C@H]3CC[C@@]21C [Norethynodrel] | > 20
21 | CCOC(N)=O [Urethane] | > 100
22 | O=S1OCCO1 [Glycol sulfite] | > 100
23 | CC(=O)N[C@@H](CC(C)C)C(=O)O [Acetyl-L-leucine] | > 50
24 | C=CC[N+]1([C@H]2C[C@H]3[C@@H]4CC[C@H]5C[C@H](O)[C@@H](N6CCOCC6)C[C@]5(C)[C@H]4CC[C@]3(C)[C@H]2OC(C)=O)CCCC1 [Rocuronium bromide] | > 50
25 | CN(C)C(=O)NC1(c2ccccc2)CCN(CC[C@@]2(c3ccc(F)c(F)c3)CN(C(=O)c3ccccc3)CCO2)CC1 [SR144190] | 55.6
26 | Oc1cccc(Cl)c1 [3-Chlorophenol] | > 90
27 | CCCCCc1ccc(Cl)cc1 | > 90

Row | Structure (SMILES) | CC50 at 24 h [µM]
28 | CN1C(=O)CC[C@H]1c1cccnc1 [Cotinine] | > 90
29 | C=CCN=C=S [Allyl isothiocyanate] | > 90
30 | CN1CCN(C2=Nc3cc(F)ccc3Cc3ccccc32)CC1 [Fluperlapine] | 11.9
31 | Cc1cc2c(OCC(CNC(C)(C)C)OC(=O)c3ccccc3)cccc2[nH]1 (stereo not drawn) [Bopindolol] | 42.5
32 | C=C(C)[C@H]1CC=C(C)CC1 [D-Limonene] | > 90
33 | CN1C(=O)NC(=O)C(C)(C2=CCCCC2)C1=O (stereo not drawn) [Hexobarbital] | > 50
34 | CCCCCCC(C)(C)C(=O)O [Calcium neodecanoate] | > 90
35 | CCOC(=O)C(=O)OCC [Diethyl oxalate] | > 90
36 | CCC(C)c1cccc(C(C)CC)c1O (stereo not drawn) [2,6-Di(butan-2-yl)phenol] | 72.2
37 | Cc1ccsc1/C=C/C1=NCCCN1C [Morantel tartrate] | > 20
38 | O=C1CCCCCCCCCCCCCC1 [Cyclopentadecanone] | 60.9
39 | O=C(O)c1ccccc1Nc1cccc(C(F)(F)F)c1 [Flufenamic acid] | > 50
40 | Cc1cc(CCN2CCN(c3nsc4ccccc34)CC2)cc2c1NC(=O)CC2(C)C [PD 0343701] | 46.9
41 | Cc1cc(C)c(NC(=O)C[C@H](CC(=O)O)c2cccc3ccccc23)c(C(=O)N2CCC3(CCCC3)CC2)c1 [Itriglumide sodium] | 26.9
42 | O=C(O)Cc1ccccc1Nc1c(Cl)cccc1Cl [Diclofenac sodium] | > 90
43 | CCOC(=O)Cn1cccc1-c1nc(-c2ccc(OC)cc2)c(-c2ccc(OC)cc2)s1 [Pamicogrel] | > 50
44 | C/C(=N\C#N)N(C)Cc1ccc(Cl)nc1 [Acetamiprid] | > 90
45 | CC(C)NCC1CCc2cc(CO)c([N+](=O)[O-])cc2N1 (stereo not drawn) [Oxamniquine] | > 20
46 | Cc1nc(-c2ccc(Cl)cc2)oc1COC(C)(C)C(=O)O [Romazarit] | > 50
47 | CC(=O)N[C@@H](CS)C(=O)O [N-Acetyl-L-cysteine] | > 90
48 | COc1cccc(C(=O)NN(C(=O)c2cc(C)cc(C)c2)C(C)(C)C)c1C [Methoxyfenozide] | > 90
49 | CCOC(=O)CN[C@@H](C(=O)N1CC[C@H]1C(=O)NCc1ccc(/C(N)=N\O)cc1)C1CCCCC1 [Ximelagatran] | > 50
50 | CC(C)(C)C1CCCCC1O (stereo not drawn) [2-tert-Butylcyclohexanol] | > 90
51 | CC(C)NC(=O)NC(C)C [1,3-Dipropan-2-ylurea] | > 90
52 | COCC(C)OCC(C)OC(C)=O (stereo not drawn) [Dipropyleneglycol methyl ether acetate] | > 90
53 | CCCCCCCCCCCCSC#N [Lauryl thiocyanate] | > 90
54 | CCCOCCC [Propyl ether] | > 90

Row | Structure (SMILES) | CC50 at 24 h [µM]
55 | CC(C)(c1ccccc1)c1ccc(Nc2ccc(C(C)(C)c3ccccc3)cc2)cc1 [4-(2-Phenylpropan-2-yl)-N-[4-(2-phenylpropan-2-yl)phenyl]aniline] | > 90
56 | CC[C@@H](NC(C)C)[C@@H](O)c1ccc(O)c2[nH]c(=O)ccc12 [Procaterol] | > 50
57 | C=CC1(C)OC(=O)N(c2cc(Cl)cc(Cl)c2)C1=O (stereo not drawn) [Vinclozolin] | > 90
58 | C=C(C)C(=O)OC(C)C [Isopropyl methacrylate] | > 90
59 | CCCCC(CC)C(=O)OCCOCCOCCOCCOC(=O)C(CC)CCCC (stereo not drawn) [Tetraethylene glycol di(2-ethylhexanoate)] | > 90
60 | C/C=C/C=C/C=O [(2E,4E)-2,4-Hexadienal] | > 90
61 | Brc1ccccc1-c1ccccc1 [2-Bromobiphenyl] | > 90
62 | O=[N+]([O-])c1cccc(C(F)(F)F)c1 [1-Nitro-3-(trifluoromethyl)benzene] | > 90
63 | Fc1c(F)c(F)c(Br)c(F)c1F [Bromopentafluorobenzene] | > 90
64 | C[C@]12C[C@H](O)[C@H]3[C@@H](CCC4=CC(=O)CC[C@@]43C)[C@@H]1CC[C@@H]2C(=O)CO [Corticosterone] | > 90
65 | C[N+](C)(C)CCCCCCCCCC[N+](C)(C)C [Decamethonium bromide] | > 50
66 | Oc1ccc(Cl)cc1 [4-Chlorophenol] | > 90
67 | O=C(O)[C@H](CC(=O)N1C[C@H]2CCCC[C@H]2C1)Cc1ccccc1 [Mitiglinide calcium dihydrate] | > 50
68 | Oc1ccc(Cc2ccc(O)cc2)cc1 [Bis(4-hydroxyphenyl)methane] | > 90
69 | C/C=C/C(=O)O [2-Butenoic acid] | > 90
70 | COc1cc(O)c(C(=O)c2ccccc2)cc1S(=O)(=O)O [Sulisobenzone] | > 90
71 | CC(=O)Nc1ccc(OC(=O)c2ccccc2O)cc1 [Acetaminosalol] | > 50
72 | CO[Si](CCCCl)(OC)OC [(3-Chloropropyl)trimethoxysilane] | > 90
73 | NC(N)=S [Thiourea] | > 90
74 | O=C1CCCc2c1cc1ccc3cccc4ccc2c1c34 [9,10-Dihydrobenzo[a]pyren-7(8H)-one] | > 90
75 | CC(C)c1cccc(O)c1 [3-Isopropylphenol] | > 100
76 | Cc1cc(C)cc(N)c1 [3,5-Dimethylaniline] | > 90
77 | C=C1C[C@H]2[C@@H]3CCC4=CC(=O)C=C[C@]4(C)[C@@]3(F)[C@@H](O)C[C@]2(C)[C@@]1(O)C(=O)COC(C)=O [Fluprednidene acetate] | > 50
78 | CCCCCCCCCCCCc1ccc(O)cc1 [4-Dodecylphenol] | 15.6
79 | CCCCCCCCCCCCNC(=N)N [Dodine] | > 4

same assay, conditions: rat, gh3-tre-luc cells, AC50 (uM) modified / 1000, Tox21_110001=Tox21_110431; viability, 1 nM T3 present, 24 h

Row | Structure (SMILES) | CC50 at 24 h [µM]
80 | C[C@H](N)[C@H](O)c1ccccc1 [Phenylpropanolamine hydrochloride] | > 20

same assay, conditions: rat, gh3-tre-luc cells, AC50 (uM) modified / 1000, Tox21_110001=Tox21_111859; viability, 1 nM T3 present, 24 h

Row | Structure (SMILES) | CC50 at 24 h [µM]
81 | O=C1CCCCC1CN1CCCCC1 (stereo not drawn) [Pimeclone] | > 50

same assay, conditions: rat, gh3-tre-luc cells, AC50 (uM) modified / 1000, Tox21_110001=Tox21_201338; viability, 1 nM T3 present, 24 h

Row | Structure (SMILES) | CC50 at 24 h [µM]
82 | CNC(=O)ON=CC(C)(C)S(C)(=O)=O [Aldoxycarb] | > 90

same assay, conditions: rat, gh3-tre-luc cells, AC50 (uM) modified / 1000, Tox21_110001=Tox21_201430; viability, 1 nM T3 present, 24 h

Row | Structure (SMILES) | CC50 at 24 h [µM]
83 | C=CC(=O)OCCO [2-Hydroxyethyl acrylate] | > 90

same assay, conditions: rat, gh3-tre-luc cells, AC50 (uM) modified / 1000, Tox21_110001=Tox21_202343; viability, 1 nM T3 present, 24 h

Row | Structure (SMILES) | CC50 at 24 h [µM]
84 | CCOP(=S)(OCC)SCCSCC [Disulfoton] | > 90

same assay, conditions: rat, gh3-tre-luc cells, AC50 (uM) modified / 1000, Tox21_110001=Tox21_300861; viability, 1 nM T3 present, 24 h

Row | Structure (SMILES) | CC50 at 24 h [µM]
85 | CCOP(=S)(OCC)SCCSCC [Disulfoton] | > 40

same assay, conditions: rat, gh3-tre-luc cells, AC50 (uM) modified / 1000, Tox21_110001=Tox21_301203; viability, 1 nM T3 present, 24 h

Row | Structure (SMILES) | CC50 at 24 h [µM]
86 | C=CCc1ccc(OC(=O)Cc2ccccc2)c(OC)c1 [Eugenyl phenylacetate] | > 90

same assay, conditions: rat, gh3-tre-luc cells, AC50 (uM) modified / 1000, Tox21_110001=Tox21_302136; viability, 1 nM T3 present, 24 h

Row | Structure (SMILES) | CC50 at 24 h [µM]
87 | COc1cccc(C=O)c1 [3-Methoxybenzaldehyde] | > 90
